Measured values from patent US20070173462A1, “Treatment of diseases associated with the use of antibiotics” (Optimer Pharmaceuticals, Inc., priority 2004, published 2007).
≈ marks a conversion by molar mass, not a printed value. Where two headings read alike, the source gives them in different places.

Key:
C. difficile = assay: MIC via agar dilution, 110 genetically distinct clinical isolates of C. difficile; type: cell-based
C. glycolicum = assay: microbe, parasite or virus in culture; type: cell-based; details: clinical isolates, n=9
[1] = Clostridioides difficile, 110 clinical isolates, agar dilution

Compound: CCc1c(Cl)c(O)c(Cl)c(O)c1C(=O)O[C@H]1[C@H](O)[C@H](OC)[C@H](OC/C2=C\C=C\C[C@H](O)/C(C)=C/[C@H](CC)C(O[C@@H]3OC(C)(C)[C@@H](OC(=O)C(C)C)[C@H](O)[C@@H]3O)/C(C)=C/C(C)=C/C[C@@H](C(C)O)OC2=O)O[C@@H]1C (stereo partly drawn) [Compound I]
- MIC (C. difficile; Clostridioides difficile, isolate ORG ID CB1 1584, read-out: MIC): 0.25 µg/mL (≈ 0.236 µM)
- MIC (C. difficile; Clostridioides difficile, isolate ORG ID CL1 3851, read-out: MIC): 0.25 µg/mL (≈ 0.236 µM)
- MIC (C. difficile; Clostridioides difficile, isolate ORG ID CN1 667, read-out: MIC): 0.25 µg/mL (≈ 0.236 µM)
- MIC (C. difficile; Clostridioides difficile, isolate ORG ID CO1 4652, read-out: MIC): 0.25 µg/mL (≈ 0.236 µM)
- MIC (C. difficile; Clostridioides difficile, isolate ORG ID D1 1360, read-out: MIC): 0.03 µg/mL (≈ 0.0284 µM)
- MIC (C. difficile; Clostridioides difficile, isolate ORG ID E1 816, read-out: MIC): 0.06 µg/mL (≈ 0.0567 µM)
- MIC (C. difficile; Clostridioides difficile, isolate ORG ID J1 5971, read-out: MIC): 0.06 µg/mL (≈ 0.0567 µM)
- MIC (C. difficile; Clostridioides difficile, isolate ORG ID J7 4224, read-out: MIC): 0.03 µg/mL (≈ 0.0284 µM)
- MIC (C. difficile; Clostridioides difficile, isolate ORG ID J9 4478, read-out: MIC): 0.06 µg/mL (≈ 0.0567 µM)
- MIC (C. difficile; Clostridioides difficile, isolate ORG ID O1 1861, read-out: MIC): 0.06 µg/mL (≈ 0.0567 µM)
- MIC (C. difficile; Clostridioides difficile, isolate ORG ID R6 6015, read-out: MIC): 0.015 µg/mL (≈ 0.0142 µM)
- MIC (C. difficile; Clostridioides difficile, isolate ORG ID Y1 5639, read-out: MIC): 0.06 µg/mL (≈ 0.0567 µM)
- MIC (C. difficile; Clostridioides difficile, isolate ORG ID Y2 1459, read-out: MIC): 0.06 µg/mL (≈ 0.0567 µM)
- MIC (C. difficile; Clostridioides difficile, isolate ORG ID Z1 3036, read-out: MIC): 0.03 µg/mL (≈ 0.0284 µM)
- MIC50 (C. difficile; [1]): 0.125 µg/mL (≈ 0.118 µM)
- MIC90 (C. difficile; [1]): 0.125 µg/mL (≈ 0.118 µM)
- MIC (C. difficile; Clostridioides difficile, 110 clinical isolates, agar dilution, read-out: Geometric Mean (MIC)): 0.08 µg/mL (≈ 0.0756 µM)
- MIC (C. difficile; isolate ORG ID 64 5940): 0.125 µg/mL (≈ 0.118 µM)
- MIC (C. difficile; isolate ORG ID 67 6367): 0.125 µg/mL (≈ 0.118 µM)
- MIC (C. difficile; isolate ORG ID 70 6376): 0.125 µg/mL (≈ 0.118 µM)
- MIC (C. difficile; isolate ORG ID 71 6379): 0.125 µg/mL (≈ 0.118 µM)
- MIC (C. difficile; isolate ORG ID 72 6380): 0.125 µg/mL (≈ 0.118 µM)
- MIC (C. difficile; isolate ORG ID 75 6388): 0.125 µg/mL (≈ 0.118 µM)
- MIC (C. difficile; isolate ORG ID 76 6389): 0.125 µg/mL (≈ 0.118 µM)
- MIC (C. difficile; isolate ORG ID 80 6327): 0.125 µg/mL (≈ 0.118 µM)
- MIC (C. difficile; isolate ORG ID 81 6328): 0.125 µg/mL (≈ 0.118 µM)
- MIC (C. difficile; isolate ORG ID 84 6331): 0.125 µg/mL (≈ 0.118 µM)
- MIC (C. difficile; isolate ORG ID 87 6334): 0.125 µg/mL (≈ 0.118 µM)
- MIC (C. difficile; isolate ORG ID 88 6335): 0.125 µg/mL (≈ 0.118 µM)
- MIC (C. difficile; isolate ORG ID 90 6338): 0.125 µg/mL (≈ 0.118 µM)
- MIC (C. difficile; isolate ORG ID 91 6339): 0.125 µg/mL (≈ 0.118 µM)
- MIC (C. difficile; isolate ORG ID 93 6341): 0.125 µg/mL (≈ 0.118 µM)
- MIC (C. difficile; isolate ORG ID 95 6347): 0.125 µg/mL (≈ 0.118 µM)
- MIC (C. difficile; isolate ORG ID 98 6350): 0.125 µg/mL (≈ 0.118 µM)
- MIC (C. difficile; isolate ORG ID 100 6353): 0.125 µg/mL (≈ 0.118 µM)
- MIC (C. difficile; isolate ORG ID A1 1535): 0.125 µg/mL (≈ 0.118 µM)
- MIC (C. difficile; isolate ORG ID AF1 1808): 0.125 µg/mL (≈ 0.118 µM)
- MIC (C. difficile; isolate ORG ID AG1 3044): 0.125 µg/mL (≈ 0.118 µM)
- MIC (C. difficile; isolate ORG ID AH1 3430): 0.125 µg/mL (≈ 0.118 µM)
- MIC (C. difficile; isolate ORG ID AN1 464): 0.125 µg/mL (≈ 0.118 µM)
- MIC (C. difficile; isolate ORG ID AO1 287): 0.125 µg/mL (≈ 0.118 µM)
- MIC (C. difficile; isolate ORG ID AS1 4099): 0.125 µg/mL (≈ 0.118 µM)
- MIC (C. difficile; isolate ORG ID AT1 1216): 0.125 µg/mL (≈ 0.118 µM)
- MIC (C. difficile; isolate ORG ID AW1 4501): 0.125 µg/mL (≈ 0.118 µM)
- MIC (C. difficile; isolate ORG ID BE1 4307): 0.125 µg/mL (≈ 0.118 µM)
- MIC (C. difficile; isolate ORG ID BI1 1675): 0.125 µg/mL (≈ 0.118 µM)
- MIC (C. difficile; isolate ORG ID BK1 4291): 0.125 µg/mL (≈ 0.118 µM)
- MIC (C. difficile; isolate ORG ID BL1 716): 0.125 µg/mL (≈ 0.118 µM)
- MIC (C. difficile; isolate ORG ID BN1 1322): 0.125 µg/mL (≈ 0.118 µM)
- MIC (C. difficile; isolate ORG ID BV1 1183): 0.125 µg/mL (≈ 0.118 µM)
- MIC (C. difficile; isolate ORG ID BW1 3130): 0.125 µg/mL (≈ 0.118 µM)
- MIC (C. difficile; isolate ORG ID BX1 4271): 0.125 µg/mL (≈ 0.118 µM)
- MIC (C. difficile; isolate ORG ID CF1 5922): 0.125 µg/mL (≈ 0.118 µM)
- MIC (C. difficile; isolate ORG ID CG1 1566): 0.125 µg/mL (≈ 0.118 µM)
- MIC (C. difficile; isolate ORG ID CJ1 893): 0.125 µg/mL (≈ 0.118 µM)
- MIC (C. difficile; isolate ORG ID CP1 5491): 0.125 µg/mL (≈ 0.118 µM)
- MIC (C. difficile; isolate ORG ID G1 1077): 0.125 µg/mL (≈ 0.118 µM)
- MIC (C. difficile; isolate ORG ID I1 1389): 0.125 µg/mL (≈ 0.118 µM)
- MIC (C. difficile; isolate ORG ID K1 4305): 0.125 µg/mL (≈ 0.118 µM)
- MIC (C. difficile; isolate ORG ID K14 5780): 0.125 µg/mL (≈ 0.118 µM)
- MIC (C. difficile; isolate ORG ID L1 1423): 0.125 µg/mL (≈ 0.118 µM)
- MIC (C. difficile; isolate ORG ID N1 471): 0.125 µg/mL (≈ 0.118 µM)
- MIC (C. difficile; isolate ORG ID R1 397): 0.125 µg/mL (≈ 0.118 µM)
- MIC (C. difficile; isolate ORG ID V1 1521): 0.125 µg/mL (≈ 0.118 µM)
- MIC (C. difficile; isolate ORG ID W1 3931): 0.125 µg/mL (≈ 0.118 µM)
- MIC (C. difficile; isolate ORG ID X1 1890): 0.125 µg/mL (≈ 0.118 µM)
- MIC50 (C. glycolicum; Terrisporobacter glycolicus): 0.062 µg/mL (≈ 0.0586 µM)
- MIC90 (C. glycolicum; Terrisporobacter glycolicus): 1 µg/mL (≈ 0.945 µM)
- Range (MIC) (C. glycolicum): 0.062 to 1 µg/mL
